Two molecules from patent US8680120B2, “Indole derivative or pharmaceutically acceptable salt thereof” (Kissei Pharmaceutical Co., Ltd., priority 2009, dated 2014) can be followed below.

pIC50: −log10 of the molar value.

One experiment concerns Female SD rats. Briefly: Inhibitory effect of compound on sulprostone-induced bladder contraction. Format: in vivo, rat. Conditions: sulprostone 0.3 mg/kg subcutaneously, urethane-anesthetized female SD rats; for Bladder Contraction Inhibition Rate (%) 15 Minutes: 15 minutes after test agent 1.0 mg/kg intravenously; for Bladder Contraction Inhibition Rate (%) 60 Minutes: 60 minutes after test agent 1.0 mg/kg intravenously. On the procedure:
Female SD rats were used. Under urethane anesthesia (1.25 g/kg, administered subcutaneously), a tracheal cannula (Size 8, HIBIKI) and a femoral vein cannula for administration (23 G needle-equipped PE50) were inserted thereinto. The bladder cannula (PE50) was inserted from the bladder apex. The bladder cannula was connected to a three-way stopcock, and then, one was connected to a pressure transducer and the other was connected to a syringe filled with saline. Saline was injected to the bladder at an injection rate of 3.6 mL/hour and the bladder contraction pressure was recorded at the time of injection with a recorder (RECTI-HORITZ-8K, NEC Corporation). After 10 minutes from stabilization of the bladder contraction pressure during urination, sulprostone was administered subcutaneously (0.3 mg/kg). Then, at the time point when the bladder contraction pressure became constant, a test agent was administered intravenously (1.0 mg/kg). An average bladder contraction pressure during the 10 minutes period before administration of sulprostone was taken as a baseline (0%). Further, an average bladder contraction pressure during the 10 minutes period before administration of the test agent was taken as a maximum bladder contraction pressure (100%). The average bladder contraction pressures were measured during 5 minutes before and after at 15 minutes and 60 minutes from administration of the test agent. The ratio of this measured value to the maximum bladder contraction pressure was calculated by the following equation and taken as an average bladder contraction rate after administration of the test agent: (Average Bladder Contraction Rate after Administration of Test Agent (%))=(Average Bladder Contraction Pressure after Administration of Test Agent)/(Maximum Bladder Contraction Pressure). In addition, the difference between the maximum bladder contraction rate (100%) and the average bladder contraction rate (%) after administration of the test agent was calculated by the following equation and taken as a bladder contraction inhibition rate of the test agent: (Bladder Contraction Inhibition Rate)=100%−(Average Bladder Contraction Rate after Administration of Test Agent (%)).

The target of the next experiment is rat EP1 receptor (Rattus norvegicus (Rat), UniProt P70597). Put plainly: Test for confirmation of EP1 receptor antagonism: inhibition of the prostaglandin E2-induced increase in intracellular calcium concentration in rat EP1 receptor-expressing COS-1 cells. The format is cell-based. As to conditions: Method A: Fluo-4 NW Calcium Assay Kit, FlexStation; prostaglandin E2 10 nM; rat EP1 receptor-expressing COS-1 cells. On the procedure: (1) Preparation of Rat EP1 Expression Vector
Chain of rat EP1 receptor (P70597 whole entry): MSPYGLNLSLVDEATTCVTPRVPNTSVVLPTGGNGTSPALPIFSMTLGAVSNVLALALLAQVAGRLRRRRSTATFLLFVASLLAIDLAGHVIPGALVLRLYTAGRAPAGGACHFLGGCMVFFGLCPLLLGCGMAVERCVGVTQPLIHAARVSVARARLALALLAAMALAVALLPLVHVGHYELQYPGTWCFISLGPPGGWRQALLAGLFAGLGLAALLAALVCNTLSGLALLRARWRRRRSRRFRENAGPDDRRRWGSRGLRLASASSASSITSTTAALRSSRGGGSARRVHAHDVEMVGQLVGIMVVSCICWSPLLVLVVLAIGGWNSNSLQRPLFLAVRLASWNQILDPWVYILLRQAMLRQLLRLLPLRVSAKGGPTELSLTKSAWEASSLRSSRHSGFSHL
Using Rat Kidney BD Marathon-Ready cDNA (Nippon Becton Dickinson Company, Ltd.) as a template, a forward primer shown in SEQ ID NO. 1, and a reverse primer shown in SEQ ID NO. 2, a first run of PCR was carried out using KOD-Plus-Ver 2.0 (Toyobo Co., Ltd.). Further, using this amplification product as a template, a forward primer shown in SEQ ID NO. 3, and a reverse primer shown in SEQ ID NO. 4, a second run of PCR was carried out in the same manner. The amplification product obtained by the second run of PCR was incorporated into a vector (pcDNA3.1 D/V5-His-TOPO (registered trademark), Invitrogen Japan K. K.). By a conventional method, the vector containing this amplification product was introduced to E. coli (One Shot TOP10 Competent Cells, Invitrogen Corporation) to transform. This transformed E. coli was cultured in an LB agar medium for one day. After the culture, colonies were selected and cultured in an LB liquid medium containing 50 μg/mL of ampicillin. After the culture, the vector was purified using a QIAprep Spin Miniprep Kit (Qiagen K. K.). The base sequence of the insertion site of this vector (SEQ ID NO. 5) was compared with the rat EP1 base sequence (Ptger1) registered as an accession number NM_013100 in well-known database (NCBI), and as a result, they all matched except for a single base. Further, the amino acid sequence translated by the base sequence completely matched the amino acid sequence of the rat EP1 receptor registered as an NCBI accession number NP_037232. Therefore, it was confirmed that the cloned gene sequence was a base sequence of the rat EP1 receptor and the obtained amino acid sequence was that of the rat EP1 receptor. The pcDNA3.1 D/V5-His-TOPO (registered trademark) to which the nucleic acid shown in SEQ ID NO. 5 had been inserted was taken as a rat EP1-expressing vector.
(2) Preparation of Rat EP1 Receptor-Expressing Cells
COS-1 cells (Dainippon Sumitomo Pharma Co., Ltd.) were cultured until it reached confluence in an incubator at 37° C. under a 5% CO2 gas condition, using a D-MEM liquid medium (high glucose and L-glutamine contained, Invitrogen Corporation) to which a penicillin-streptomycin solution (Invitrogen Corporation, final concentration: 100 U/mL as benzylpenicillin; 100 μg/mL as streptomycin) as an antibiotic, MEM nonessential amino acids (Invitrogen Corporation, final Concentration: 0.1 mM), and fetal calf serum (Sanko Junyaku Co., Ltd., final concentration: 10%) were added.
The cells that had reached confluence were stripped with 0.05% trypsin/0.53 mM EDTA 4Na (Invitrogen Japan K. K.) and resuspended in the liquid medium. The resuspended cells were diluted and cultured in the liquid medium at a spread ratio from 1:4 to 1:8.
The cells that had reached confluence were stripped with 0.05% trypsin/0.53 mM EDTA.4Na, and resuspended in a D-MEM liquid medium (high glucose and L-glutamine contained, Invitrogen Corporation) to which an MEM nonessential amino acid (final concentration: 0.1 mM) and fetal calf serum (final concentration: 10%) were added. In each well of a Poly D-lysine-coated 96-well microplate (BD BioCoat (registered trademark), Nippon Becton Dickinson Company, Ltd.), this resuspended cell suspension culture was prepared to be 5×10^4 cells/well in 100 μL of the liquid medium, and seeded thereon. After seeding, the cells were cultured in an incubator at 37° C. under a 5% CO2 gas condition. At a point when the cells for introduction of a rat EP1-expressing vector were adhered (about 2 hours after seeding), introduction of the rat EP1-expressing vector was carried out in the following order.
For introduction of the rat EP1-expressing vector, Lipofectamine 2000 (Invitrogen Japan K. K.) was used. […]

Consider `COc1cc2cc(-c3ccccc3)n(Cc3cccc(C(=O)O)n3)c2cc1F` [Example 16-15], for which, in the experiment on Female SD rats, the “Bladder Contraction Inhibition Rate (%) 15 Minutes” value is 85.0% and the “Bladder Contraction Inhibition Rate (%) 60 Minutes” value came out at 54.9%.
Take `COc1ccc2c(c1)cc(-c1ccccc1)n2Cc1cccc(C(=O)O)n1` [Example 9-21, 6-(5-methoxy-2-phenylindol-1-ylmethyl)pyridine-2-carboxylic acid]: in the experiment on Female SD rats, the “Bladder Contraction Inhibition Rate (%) 15 Minutes” value is 94.5% and the “Bladder Contraction Inhibition Rate (%) 60 Minutes” value is listed as 82.8%. The negative-log IC50 (pIC50) on rat EP1 receptor was 7.89.
